The text below walks through data of patent US7045516B1, “Benzoxazole derivatives and drugs containing the same as the active ingredient” (Koichi Shudo, priority 1998, dated 2006).

Where two headings read alike, the source gives them in different places.

The nature of series [1]: Toxicity test, oral administration to mice. It is filed as in vivo. As to conditions: 300 mg/kg, suspended in distilled water, 7-week old male mice. The procedure:
The compound of Example 1 (b) gave no death of the animal at a dose of 300 mg/kg.

Series [2] concerns rat diarrhea under restriction stress. Put plainly: Inhibitory action for rat diarrhea under restriction stress. It counts as in vivo. As to conditions: oral, 30 min before restraint, male Wistar rats, 3 hours, nonlinear least square method. On the procedure: L. Williams et al. [GASTROENTEROLOGY, 94, 611–621 (1988)] was determined as follows, and the results were analyzed by the nonlinear least square method. 8-Week old male Wistar rats were starved from the evening of the day before the test. Each test compound was orally administered to the rats. After 30 minutes, the rats were constrained by binding of their fore-limbs and hind-limbs with wires. The rats were left in individual gages on white sheets under luminescent lamps for 3 hours. […] The test was performed with groups of rats each consisting of 8 rats.

The nature of series [3]: Reverse mutation test. On the procedure:
A reverse mutagenicity test was performed using the compound of Example 1 (b) of the present specification, hydrochloride of 5,7-dimethyl-2-(1-piperazinyl)benzoxazole (C), hydrochloride of 5-chloro-7-methyl-2-(4-methyl-1-piperazinyl)benzoxazole (D), and hydrochloride of 5-chloro-7-methyl-2-(4-methyl-1-homopiperazinyl) benzoxazole (E) (compounds disclosed in Japanese Patent Publication (KOKAI) No. 10-29987/1998), and the compound described in Reference Example 4 of the present specification, i.e., hydrochloride of 5-chloro-7-methyl-2-(1-piperazinyl) benzoxazole (F) according to the method of T. Matsushima et al. (Noropoth K. H., Springer, Berlin-Heidelberg-New York, “Short-Term Test Systems For Detecting Carcinogens”, pp. 273–285, 1980) referred by the guideline 471 of ORGANIZATION FOR ECONOMIC CO-OPERATION AND DEVELOPMENT.

Series [4] has as its system large bowel transportation ability of normal mice. In words: Effect on large bowel transportation ability of normal mice (glass bead excretion). It is filed as in vivo, mouse. As to conditions: ddY male mice, bead inserted after 30 minutes. The procedure:
G. et al. [Drug Dev. Res., 9, 241-247, (1986)] was determined as follows. Each test compound was orally administered to 5- to 7-week old ddY male mice starved for about 4 hours. […] After the insertion of the glass bead, time (second) from the insertion to excretion of the bead from the anus was measured, and the time was used as an index of large bowel transportation ability. The test was performed by using groups of mice each consisting of 9 to 11 mice, and all of the procedures were performed under no anesthesia.

Series [5] is described as follows: Metabolic activity in human liver, in vitro system with S9 fraction. It counts as in vitro ADME. As to conditions: 50 μmol/L test compound, 1 mg/mL human liver S9, NADPH production system, 37 °C, 15 minutes. The procedure:
The test was performed in an in vitro system utilizing human liver S9 fraction in the presence of an NADPH production system described below. A reaction mixture of a total volume of 125 μL containing components at given final concentrations was prepared (50 μmol/L of test compound, 6 mmol/L of MgCl2.6H2O, 1 mmol/L of β-NADP^+, 10 mmol/L of glucose-6-phosphate (G-6-P), 0.7 U/mL of G-6-P dehydrogenase, 100 mmol/L of potassium phosphate (pH 7.4), 0.1 mmol/L of EDTANa2, and 1 mg/mL of human liver S9), and incubated at 37 C.° for 15 minutes. The reaction was stopped by the addition of 125 μL of N,N-dimethylformamide containing a substance for internal standard. The reaction mixture was centrifuged (2,000×g, 10 minutes), and the supernatant was subjected to HPLC analysis to determine the concentration of unchanged substance. Consumed amount was calculated from the concentration of unchanged substance, and the metabolic rate was represented as activity per unit amount of protein.

Where [6] appears, read: method of Matsushima et al., OECD guideline 471.

As to `Cc1cc(Cl)cc2nc(N3CCCNCC3)oc12.Cl` [Example 1 (b), 5-Chloro-2-(1-homopiperazinyl)-7-methylbenzoxazole hydrochloride], the “death of the animal” value in series [1] was “no death”. The 50% effective dose (ED50) in series [2] (Rattus norvegicus) was determined as 0.25 µg/kg. Besides, the reverse mutagenicity result in series [3] is listed as “negative”. Besides, the “time from insertion to excretion of glass bead” value in series [4] (dose 3 mg/kg oral) was determined as 218.39 s; in series [4] (dose 10 mg/kg oral), 313.60 s; in series [4] (dose 30 mg/kg oral), 239.11 s.
In turn, `Cc1cc(C)c2oc(N3CCNCC3)nc2c1.Cl` [Hydrochloride of C, hydrochloride of 5,7-dimethyl-2-(1-piperazinyl)benzoxazole] displayed an ED50 value in series [2] of 27.2 µg/kg. The reverse mutagenicity entry in series [3] (setting [6]) is on record as “negative”. In addition, the “time from insertion to excretion of glass bead” value in series [4] (dose 3 mg/kg oral) is 234.01 s; in series [4] (dose 10 mg/kg oral) it was 251.00 s; in series [4] (dose 30 mg/kg oral), 357.08 s. The compound also showed a Metabolic activity in series [5] of 0.06 nmol/min/mg protein.
Regarding `Cc1cc(Cl)cc2nc(N3CCN(C)CC3)oc12.Cl` [Hydrochloride of D, hydrochloride of 5-chloro-7-methyl-2-(4-methyl-1-piperazinyl) benzoxazole], the reverse mutagenicity entry in series [3] (setting [6]) is on record as “negative”. This compound also gave a Metabolic activity in series [5] of 0.87 nmol/min/mg protein.
